This is an account of results in patent publication US20240294498A1, “FACTOR XIIA INHIBITORS” (Lunac Therapeutics Ltd, priority 2021, published 2024).

Holding throughout (format): biochemical
The target of test [1] is T1, FXIIa (Homo sapiens, UniProt P00748).
T1 construct: FXIIa alpha
T1 sequence (P00748 373-615 limits assumed): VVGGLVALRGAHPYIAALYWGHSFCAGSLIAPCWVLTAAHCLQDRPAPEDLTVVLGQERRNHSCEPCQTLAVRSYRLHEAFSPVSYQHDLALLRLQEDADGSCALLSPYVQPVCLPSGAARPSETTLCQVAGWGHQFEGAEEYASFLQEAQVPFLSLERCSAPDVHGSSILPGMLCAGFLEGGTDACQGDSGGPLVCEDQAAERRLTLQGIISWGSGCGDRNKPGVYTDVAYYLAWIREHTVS
T1 sequence (P00748 20-372 partner limits assumed): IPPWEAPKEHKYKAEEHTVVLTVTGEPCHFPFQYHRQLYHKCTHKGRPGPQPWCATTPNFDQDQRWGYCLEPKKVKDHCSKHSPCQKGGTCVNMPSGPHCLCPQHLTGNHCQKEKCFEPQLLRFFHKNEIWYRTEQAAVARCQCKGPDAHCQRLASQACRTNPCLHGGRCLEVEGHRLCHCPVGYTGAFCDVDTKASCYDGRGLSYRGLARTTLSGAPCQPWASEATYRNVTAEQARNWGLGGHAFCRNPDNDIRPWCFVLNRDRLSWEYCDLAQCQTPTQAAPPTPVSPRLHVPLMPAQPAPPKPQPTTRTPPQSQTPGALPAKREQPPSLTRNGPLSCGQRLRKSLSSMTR
The test is described as follows: Determination of Factor XIIa inhibition (chromogenic substrate S-2302). The following applies: human FXIIa alpha, Ki category. The gist of the method: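 Compound preincubated with 10 nM FXIIa for 10 min at 37° C in 50 mM Tris, 137 mM NaCl, pH 7.4, 5% DMSO, top concentration 500 μM; S-2302 added at Km. pNA release followed at 405 nm for 3 h; IC50 from initial rates, converted to Ki via Ki = IC50/(1+[S]/Km).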

The target in test [2] is FXa (Homo sapiens, UniProt P00742). Put plainly: Determination of selectivity: FXa inhibition (chromogenic substrate S2765). The following applies: fold selectivity for FXIIa over FXa (human); category. The gist of the method:
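FXa (5 nM) preincubated with increasing compound (top 500 μM) for 10 mins at 37° C in 50 mM Tris, 137 mM NaCl pH 7.4, 5% DMSO, then S2765 added at its KM. Absorbance at 405 nm followed kinetically for 3 hours; IC50 from initial rates, converted to Ki by Cheng-Prusoff.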

Test [3] has as its target T2, thrombin (Homo sapiens, UniProt P00734).
T2 construct: FXa (5 nM) and thrombin (5 nM)
The test is described as follows: Determination of selectivity: thrombin inhibition (chromogenic substrate GPR). As to conditions: fold selectivity for FXIIa over thrombin (human); category. The gist of the method:
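Thrombin (5 nM) preincubated with increasing compound concentrations (top 500 μM, 5% DMSO) 10 min at 37 °C in 50 mM Tris, 137 mM NaCl pH 7.4, then GPR chromogenic substrate at its KM. pNA release read kinetically at 405 nm for 3 h at 37 °C. IC50 from initial rates, converted to Ki via Cheng–Prusoff.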

A value given as a limit tells only on which side of the number the result lay.

Chain of FXa (P00742 235-488 limits assumed): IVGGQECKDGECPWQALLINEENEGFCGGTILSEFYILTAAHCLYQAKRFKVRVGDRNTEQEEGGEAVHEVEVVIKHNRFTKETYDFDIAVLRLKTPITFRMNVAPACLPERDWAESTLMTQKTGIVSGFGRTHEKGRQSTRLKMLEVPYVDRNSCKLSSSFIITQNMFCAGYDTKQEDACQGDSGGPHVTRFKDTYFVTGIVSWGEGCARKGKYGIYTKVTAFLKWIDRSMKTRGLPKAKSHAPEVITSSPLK
Chain of FXa (P00742 41-179 partner limits assumed): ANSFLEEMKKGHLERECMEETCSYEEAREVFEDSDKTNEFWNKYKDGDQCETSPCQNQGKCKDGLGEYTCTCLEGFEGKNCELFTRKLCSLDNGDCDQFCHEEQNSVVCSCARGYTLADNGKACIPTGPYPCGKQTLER

With `Cc1ccc(C[C@@H]2C[C@@H](C(=O)NCc3ccc4c(cnn4C)c3)N(C(=O)[C@@H]3NCCC[C@@H]3C(=O)N(C)CCCN(C)C)C2)cc1` [Example M06063, (2R,3S)-N-(3-(dimethylamino)propyl)-N-methyl-2-((2S,4R)-2-(((1-methyl-1H-indazol-5-yl)methyl)carbamoyl)-4-(4-methylbenzyl)pyrrolidine-1-carbonyl)piperidine-3-carboxamide], in test [1], the Ki was < 200 nM. In addition, the “FXa (human)/FXIIa alpha (human)” value in test [2] was “∘∘∘”. The “Thrombin (human)/FXIIa alpha (human)” value in test [3] is reported as “+++ (fold selectivity values greater than 100)”.
The like results for `Cc1ccc(C[C@@H]2C[C@@H](C(=O)NCc3ccc4c(c3)nnn4C)N(C(=O)[C@@H]3NCCC[C@@H]3C(=O)N3CCC[C@@H]3C(F)(F)F)C2)s1` [Example M06079, (2S,4S)-N-+(1-methylbenzotriazol-5-yl)methyl+-4-+(5-methyl-2-thienyl)methyl+-1-+(2R,3S)-3-+(2R)-2-(trifluoromethyl)pyrrolidine-1-carbonyl+piperidine-2-carbonyl+pyrrolidine-2-carboxamide] were, in that order, 200 to 800 nM, “∘∘∘” and “+++ (fold selectivity values greater than 100)”.
The like results for `Cc1ccc(C[C@@H]2C[C@@H](C(=O)NCc3ccc4c(cnn4C)c3)N(C(=O)[C@@H]3NCCC[C@@H]3C(=O)N(C)C3CCN(CCF)CC3)C2)cc1` [Example M06083, (2R,3S)—N-[1-(2-fluoroethyl)-4-piperidyl]-N-methyl-2-[(2S,4R)-2-[(1-methylindazol-5-yl)methylcarbamoyl]-4-(p-tolylmethyl)pyrrolidine-1-carbonyl]piperidine-3-carboxamide] were, in that order, < 200 nM, “∘∘∘” and “+++ (fold selectivity values greater than 100)”.
As to `COCCN1CCC(N(C)C(=O)[C@H]2CCCN[C@H]2C(=O)N2C[C@H](Cc3ccc(C)cc3)C[C@H]2C(=O)NCc2ccc3c(cnn3C)c2)CC1` [Example M06084, (2R,3S)-N-(1-(2-methoxyethyl)piperidin-4-yl)-N-methyl-2-((2S,4R)-2-(((1-methyl-1H-indazol-5-yl)methyl)carbamoyl)-4-(4-methylbenzyl)pyrrolidine-1-carbonyl)piperidine-3-carboxamide], the Ki in test [1] is < 200 nM. The “FXa (human)/FXIIa alpha (human)” value in test [2] is “∘∘∘”. In test [3], the “Thrombin (human)/FXIIa alpha (human)” value was “+++ (fold selectivity values greater than 100)”.
The like results for `CN(CCN1CCCC1)C(=O)[C@H]1CCCN[C@H]1C(=O)N1C[C@@H](C(F)(F)F)C[C@H]1C(=O)NCc1ccc2c(cnn2C)c1` [Example M06085, (2R,3S)-N-methyl-2-((2S,4S)-2-(((1-methyl-1H-indazol-5-yl)methyl)carbamoyl)-4-(trifluoromethyl)pyrrolidine-1-carbonyl)-N-(2-(pyrrolidin-1-yl)ethyl)piperidine-3-carboxamide] were, in that order, < 200 nM, “∘∘∘” and “+++ (fold selectivity values greater than 100)”.
Consider `Cc1ccc(C[C@@H]2C[C@@H](C(=O)NCCCn3ccnc3)N(C(=O)[C@@H]3NCCC[C@@H]3C(=O)N3CCC[C@@H]3C(F)(F)F)C2)cc1` [Example M06089], for which the Ki in test [1] lay in the range of 200 to 800 nM. The “FXa (human)/FXIIa alpha (human)” value in test [2] was “∘∘∘”. Further, the “Thrombin (human)/FXIIa alpha (human)” value in test [3] is recorded as “+++ (fold selectivity values greater than 100)”.
Regarding `Cc1ccc(C[C@@H]2C[C@@H](C(=O)NCc3ccc4c(cnn4C)c3)N(C(=O)[C@@H]3NCCC[C@@H]3C(=O)N(C)CCN3CC(F)C3)C2)cc1` [Example M06099, (2R,3S)-N-(2-(3-fluoroazetidin-1-yl)ethyl)-N-methyl-2-((2S,4R)-2-(((1-methyl-1H-indazol-5-yl)methyl)carbamoyl)-4-(4-methylbenzyl)pyrrolidine-1-carbonyl)piperidine-3-carboxamide], the Ki in test [1] is < 200 nM. Further, the “FXa (human)/FXIIa alpha (human)” value in test [2] was “∘∘∘”. The “Thrombin (human)/FXIIa alpha (human)” value in test [3] is given as “+++ (fold selectivity values greater than 100)”.
The like results for `Cc1ccc(C[C@@H]2C[C@@H](C(=O)NCc3ccc4c(cnn4C)c3)N(C(=O)[C@@H]3NCCC[C@@H]3C(=O)N(C)CCN3CC[C@H](F)C3)C2)cc1` [Example M06109, (2R,3S)-N-(2-((S)-3-fluoropyrrolidin-1-yl)ethyl)-N-methyl-2-((2S,4R)-2-(((1-methyl-1H-indazol-5-yl)methyl)carbamoyl)-4-(4-methylbenzyl)pyrrolidine-1-carbonyl)piperidine-3-carboxamide] were, in that order, < 200 nM, “∘∘∘” and “+++ (fold selectivity values greater than 100)”.
The like results for `Cc1ccc(C[C@@H]2C[C@@H](C(=O)NCc3ccc4c(cnn4C)c3)N(C(=O)[C@@H]3NCCC[C@@H]3C(=O)N(C)C3CCN(C4CC4)CC3)C2)cc1` [Example M06112, (2R,3S)-N-(1-cyclopropylpiperidin-4-yl)-N-methyl-2-((2S,4R)-2-(((1-methyl-1H-indazol-5-yl)methyl)carbamoyl)-4-(4-methylbenzyl)pyrrolidine-1-carbonyl)piperidine-3-carboxamide] were, in that order, < 200 nM, “∘∘∘” and “+++ (fold selectivity values greater than 100)”.
The like results for `CO[C@H]1CCN(CCN(C)C(=O)[C@H]2CCCN[C@H]2C(=O)N2C[C@H](Cc3ccc(C)cc3)C[C@H]2C(=O)NCc2ccc3c(cnn3C)c2)C1` [Example M06128, (2R,3S)-N-(2-((S)-3-methoxypyrrolidin-1-yl)ethyl)-N-methyl-2-((2S,4R)-2-(((1-methyl-1H-indazol-5-yl)methyl)carbamoyl)-4-(4-methylbenzyl)pyrrolidine-1-carbonyl)piperidine-3-carboxamide] were, in that order, < 200 nM, “∘∘∘” and “+++ (fold selectivity values greater than 100)”.
As for `Cc1ccc(C[C@@H]2C[C@@H](C(=O)NCc3ccc4c(cnn4C)c3)N(C(=O)[C@@H]3NCCC[C@@H]3C(=O)N(C)CCN3CC(F)(F)C3)C2)cc1` [Example M06129, (2R,3S)-N-(2-(3,3-difluoroazetidin-1-yl)ethyl)-N-methyl-2-((2S,4R)-2-(((1-methyl-1H-indazol-5-yl)methyl)carbamoyl)-4-(4-methylbenzyl)pyrrolidine-1-carbonyl)piperidine-3-carboxamide], the Ki in test [1] is < 200 nM. In addition, the “FXa (human)/FXIIa alpha (human)” value in test [2] was “∘∘∘”. Moreover, in test [3], the “Thrombin (human)/FXIIa alpha (human)” value is reported as “+++ (fold selectivity values greater than 100)”.
Take `Cc1ccc(C[C@@H]2C[C@@H](C(=O)NCc3ccc4c(cnn4C)c3)N(C(=O)[C@@H]3NCCC[C@@H]3C(=O)N(C)CCN(C)CCF)C2)cc1` [Example M06131, (2R,3S)-N-(2-((2-fluoroethyl)(methyl)amino)ethyl)-N-methyl-2-((2S,4R)-2-(((1-methyl-1H-indazol-5-yl)methyl)carbamoyl)-4-(4-methylbenzyl)pyrrolidine-1-carbonyl)piperidine-3-carboxamide]: the Ki in test [1] was < 200 nM. In addition, the “FXa (human)/FXIIa alpha (human)” value in test [2] was “∘∘∘”. The “Thrombin (human)/FXIIa alpha (human)” value in test [3] was “+++ (fold selectivity values greater than 100)”.
